Reference: patent US7432397B2, “Imaging compounds” (Hammersmith Imanet Ltd., priority 2002, dated 2008)

Experiment: Metabolite analysis of plasma and brain tissue (SPE/HPLC)
Format: in vivo, rat
Details: for parent compound as share of the radioactivity in brain: rat brain; for percentage of radioactivity associated with parent: rat plasma
Protocol: Sixteen adult male Sprague-Dawley rats (body weight 250-320 g: mean±SD=288±25 g) were used in 5 separate experiments. Each rat was injected with ˜13 MBq Compound 1, at a specific activity of […], via a previously catheterised tail vein. The associated stable compound was 0.5±0.2 nmol/kg. Discrete samples of arterial blood were collected from 9 of the rats via a previously catheterised tail artery.
Plasma samples were injected directly onto a solid phase extraction (SPE) column (C18), with di-ammonium hydrogen phosphate (0.1 M) mobile phase, and the retained radioactivity subsequently injected onto a reverse phase HPLC column (300×7.8 mm i.d., p-Bondapak C18) with a mobile phase of methanol:0.1 M ammonium formate, […]. The eluates were monitored for radioactivity and absorbance at 254 nm. Brain tissues were assayed using the same methodology, excepting that the samples were homogenised and de-proteinated prior to injection onto the HPLC column.

CSc1cccc(N([11CH3])C(=N)Nc2cc(SC)ccc2Cl)c1 [Compound 1, (N-(2-chloro-5-(methylthio)phenyl)-N′-(3-methylthio)phenyl)-N′-[N-methyl-^11C]-methylguanidine]
parent compound as share of the radioactivity in brain (20 minutes after i.v. injection): approximately 95% | parent compound as share of the radioactivity in brain (70 minutes after i.v. injection): ~90% | percentage of radioactivity associated with parent (10 min after i.v. injection): ~50% | percentage of radioactivity associated with parent (90 min after i.v. injection): ~5% | metabolism and clearance from the plasma (rat, i.v.): rapid metabolism and clearance
